The molecules below were run against soluble human BACE1 catalytic domain (Homo sapiens (Human), UniProt P56817) (assay: BACE1 HTRF FRET Assay). Conditions: Ki calculated from IC50 using the Cheng-Prusoff equation.
Assay type: biochemical
Source text: A homogeneous time-resolved FRET assay can be used to determine IC50 values for inhibitors of the soluble human BACE1 catalytic domain. This assay monitors the increase of 620 nm fluorescence that resulted from BACE1 cleavage of an APPswedish APP^swe mutant peptide FRET substrate (QSY7-[…]-Europium-amide). This substrate contains an N-terminal QSY7 moiety that serves as a quencher of the C-terminal Europium fluorophore (620 nm Em). In the absence of enzyme activity, 620 nm fluorescence is low in the assay and increased linearly over 3 hours in the presence of uninhibited BACE1 enzyme Inhibition of BACE1 cleavage of the QSY7-APP^swe-Eu substrate by inhibitors is manifested as a suppression of 620 nm fluorescence.
Reactions are initiated by addition of 10 μl of 600 nM QSY7-APP^swe-Eu substrate (200 nM final) to give a final reaction volume of 30 μl in a 384 well Nunc HTRF plate. The reactions are incubated at 30° C. for 1.5 hours. The 620 nm fluorescence is then read on a Rubystar HTRF plate reader (BMG Labtechnologies) using a 50 millisecond delay followed by a 400 millisecond acquisition time window Inhibitor IC50 values are derived from non-linear regression analysis of concentration response curves.

soluble human BACE1 catalytic domain, sequence (P56817 75-416): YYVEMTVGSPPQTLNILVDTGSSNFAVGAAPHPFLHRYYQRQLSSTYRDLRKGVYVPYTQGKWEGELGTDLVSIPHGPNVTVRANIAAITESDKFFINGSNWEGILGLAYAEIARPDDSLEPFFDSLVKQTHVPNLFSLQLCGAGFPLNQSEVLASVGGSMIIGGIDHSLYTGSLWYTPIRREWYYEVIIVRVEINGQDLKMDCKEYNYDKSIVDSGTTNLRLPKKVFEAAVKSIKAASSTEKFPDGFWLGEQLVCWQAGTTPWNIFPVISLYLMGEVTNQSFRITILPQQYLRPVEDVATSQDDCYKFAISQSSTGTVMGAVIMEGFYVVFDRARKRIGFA

Row | Compound | Ki
1 | Cc1cc(C(=O)Nc2ccc(F)c([C@]3(C)CS(=O)(=O)[C@]4(CCOC4)C(=N)N3)c2)no1 [Example 81af] | 1330 nM
2 | Cc1cnc(C(=O)Nc2ccc(F)c([C@]3(C)CS(=O)(=O)[C@]4(CCOC4)C(=N)N3)c2)cn1 [Example 81h] | 108 nM
3 | C[C@@]1(c2cc(NC(=O)c3cocn3)ccc2F)CS(=O)(=O)[C@]2(CCOC2)C(=N)N1 [Example 81c] | 180 nM
4 | C[C@@]1(c2cc(NC(=O)c3ncc(Cl)cc3Cl)ccc2F)CS(=O)(=O)C2(CCCC2)C(=N)N1 [Example 18] | 2.7 nM
5 | CC(=O)Nc1ccc(F)c([C@]2(C)CS(=O)(=O)[C@]3(CCOC3)C(=N)N2)c1 [Example 81x] | 1520 nM
6 | C[C@@]1(c2cc(NC(=O)[C@H]3CCCO3)ccc2F)CS(=O)(=O)[C@]2(CCOC2)C(=N)N1 [Example 81j] | 1400 nM
7 | C[C@@]1(c2sc(-c3cccc(-c4nnco4)c3)cc2Cl)CS(=O)(=O)C2(CCCC2)C(=N)N1 [Example 43a] | 37 nM
8 | C[C@@]1(c2cc(NC(=O)C3(C#N)CC3)ccc2F)CS(=O)(=O)[C@]2(CCOC2)C(=N)N1 [Example 81i] | 741 nM
9 | C[C@@]1(c2cc(NC(=O)CC3CC3)ccc2F)CS(=O)(=O)[C@]2(CCOC2)C(=N)N1 [Example 81g] | 2960 nM
10 | C[C@@]1(c2sc(C(=O)NCc3cnoc3)cc2Cl)CS(=O)(=O)C2(CCCCC2)C(=N)N1 [Example 80] | 249 nM
11 | C[C@@]1(c2sc(-c3cccc(N4CCCC4)c3)cc2Cl)CS(=O)(=O)C2(CCOCC2)C(=N)N1 [Example 56] | 5740 nM
12 | C[C@@]1(c2cc(NC(=O)c3cncs3)ccc2F)CS(=O)(=O)[C@]2(CCOC2)C(=N)N1 [Example 81t] | 1940 nM
13 | Cc1ccc(C(=O)Nc2ccc(F)c([C@]3(C)CS(=O)(=O)[C@]4(CCOC4)C(=N)N3)c2)nc1 [Example 81y] | 41 nM
14 | C[C@@]1(c2cc(NC(=O)C3CC3)ccc2F)CS(=O)(=O)[C@]2(CCOC2)C(=N)N1 [Example 81] | 5170 nM
15 | Cn1ccc(NC(=O)c2cc(Cl)c([C@]3(C)CS(=O)(=O)C4(CCCCC4)C(=N)N3)s2)n1 [Example 80j] | 2010 nM
16 | CCc1cccc(NC(=O)c2cc(Cl)c([C@]3(C)CS(=O)(=O)C4(CCCCC4)C(=N)N3)s2)n1 [Example 80m] | 717 nM
17 | Cc1cncc(NC(=O)c2cc(Cl)c([C@]3(C)CS(=O)(=O)C4(CCCCC4)C(=N)N3)s2)c1 [Example 80g] | 2160 nM
18 | C[C@@]1(c2cc(-c3cccc(C#N)c3)ccc2F)CS(=O)(=O)C2(CCCC2)C(=N)N1 [Example 36] | 1290 nM
19 | C[C@@]1(c2sc(-c3cncc(N4CCOCC4)c3)cc2Cl)CS(=O)(=O)[C@]2(CCOC2)C(=N)N1 [Example 62i] | 1660 nM
20 | C[C@@]1(c2cc(NC(=O)c3ccno3)ccc2F)CS(=O)(=O)[C@]2(CCOC2)C(=N)N1 [Example 81b] | 300 nM
21 | C[C@@]1(c2sc(C(=O)NCc3cccc(F)c3)cc2Cl)CS(=O)(=O)C2(CCCCC2)C(=N)N1 [Example 80d] | 5120 nM
22 | C[C@@]1(c2cc(-c3cncc(C#N)c3)ccc2F)CS(=O)(=O)C2(CCCC2)C(=N)N1 [Example 38] | 939 nM
23 | C[C@@]1(c2cc(NC(=O)c3ncc(Cl)cc3Cl)ccc2F)CS(=O)(=O)C2(CCOCC2)C(=N)N1 [Example 31] | 4.1 nM
24 | Cc1cc2cccc(NC(=O)c3cc(Cl)c([C@]4(C)CS(=O)(=O)C5(CCCCC5)C(=N)N4)s3)c2o1 [Example 80i] | 6050 nM
25 | C[C@@]1(c2cc(NC(=O)c3ncc(F)cc3F)ccc2F)CS(=O)(=O)[C@]2(CCOC2)C(=N)N1 [Example 81k] | 26 nM
26 | C[C@@]1(c2cc(NC(=O)C3CCO3)ccc2F)CS(=O)(=O)[C@]2(CCOC2)C(=N)N1 (some centres unmarked) [Example 81d] | 488 nM
27 | C[C@@]1(c2cc(NC(=O)C(F)F)ccc2F)CS(=O)(=O)[C@]2(CCOC2)C(=N)N1 [Example 81n] | 639 nM
28 | CC(C)(O)c1cncc(-c2cc(Cl)c([C@]3(C)CS(=O)(=O)[C@]4(CCOC4)C(=N)N3)s2)c1 [Example 62m] | 2420 nM

Same assay, conditions: read-out: BACE1 % Inh. at 10 μM

Row | Compound | inhibition at 10 µM
29 | C[C@@]1(c2cc(NC(=O)c3ccc(F)cc3F)ccc2F)CS(=O)(=O)[C@]2(CCOC2)C(=N)N1 [Example 81v] | 58%

Reference: US9181236B2, “2-spiro-substituted iminothiazines and their mono-and dioxides as bace inhibitors, compositions and their use” (Merck Sharp & Dohme Corp., priority 2011, dated 2015)
